The values below are quoted from earlier work in patent publication US11220528B2, “Compositions and methods for treating pulmonary hypertension” (Marshall University Research Corporation, priority 2017, dated 2022).

The conditions of the data set: background statement.

As for `CCCCC[C@H](O)/C=C/[C@@H]1[C@H]2C/C(=C/CCCC(=O)O)O[C@H]2C[C@H]1O` [Epoprostenol], the half-life is 3 to 5 min.

As usually defined, the half-life is how long it takes for the measured level to halve.
